Broadly, the Kd is the concentration at which binding is half-saturated. Low readings indicate a tighter complex, high ones a looser complex.

The nature of data set [1]: in vitro drug release under plasma (pH7.4, PBS) and intracellular conditions (pH5.5, esterase). To be noted: intracellular conditions (pH5.5, esterase), 18 days. Format: in vitro ADME. The procedure: The drug release profile of both the conjugates was evaluated under plasma (pH7.4, PBS) and intracellular conditions (pH5.5, esterase).
Data set [2] deals with T1, human angiotensin II AT1 receptor (Homo sapiens, UniProt P30556).
T1 sequence (P30556 1-359): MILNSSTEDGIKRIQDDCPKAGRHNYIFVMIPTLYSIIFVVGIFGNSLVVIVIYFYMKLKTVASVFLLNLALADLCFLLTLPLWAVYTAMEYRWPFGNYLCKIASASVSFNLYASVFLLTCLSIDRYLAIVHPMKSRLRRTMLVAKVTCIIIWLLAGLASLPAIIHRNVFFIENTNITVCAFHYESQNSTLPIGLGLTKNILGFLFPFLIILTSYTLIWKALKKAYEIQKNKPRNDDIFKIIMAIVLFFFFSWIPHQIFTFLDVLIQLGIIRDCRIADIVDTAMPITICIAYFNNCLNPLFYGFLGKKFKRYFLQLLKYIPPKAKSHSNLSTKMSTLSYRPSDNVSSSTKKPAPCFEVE
As to the kind of experiment: human angiotensin II AT1 receptor (antagonist radioligand) binding assay. To be noted: [125I][Sar1-Ile8] angiotensin-II radioligand, cell membrane homogenates. Here is the method: Cell membrane homogenates (8 µg protein) are incubated for 120 min at 37° C. with 0.05 nM [125I][Sar1-Ile8] angiotensin-II in the absence or presence of the test compounds in a buffer containing 50 mM Tris-HCl (pH 7.4), 5 mM MgCl2, 1 mM EDTA and 0.1% BSA. Nonspecific binding is determined in the presence of 10 µM angiotensin II. Following incubation, the samples solution are filtered rapidly under vacuum through glass fiber filters (GF/B, Packard) presoaked with 0.3% PEI and rinsed several times with ice-cold 50 mM Tris-HCl using a 96-sample cell harvester (Unifilter, Packard). The filters are dried then counted for radioactivity in a scintillation counter (Topcount, Packard) using a scintillation cocktail (Microscint 0, Packard).
The results are expressed as a percent inhibition of the control radioligand specific binding. Saralasin is used as the standard reference compound, which is tested in each experiment at several concentrations to obtain a competition curve from which its IC50 is calculated.

The next data set addresses CSF1R (Homo sapiens, UniProt P07333). The data set can be described thus: binding affinity towards CSF1R.
A further data set relates to NASH mice. The data set can be described thus: in vivo efficacy in STAM mouse model of non-alcoholic steatohepatitis. The arrangement: species or system C57BL/6 mice. The procedure:
Pathogen-free 14 day-pregnant C57BL/6 mice were obtained from Japan SLC, Inc.(Japan); NASH was established in male mice by a single subcutaneous injection of 200 μg streptozotocin (STZ, Sigma, USA) 2 days after birth and feeding with a high fat diet (CLEA Japan Inc., Japan) ad libitum after 4 weeks of age (day 28 ± 2). NASH mice were randomized into 8 groups of 8 mice and 2 groups of 4 mice at 6 weeks of age (day 42 ± 2) the day before the start of treatment based on their body weight. Littermate control mice without STZ priming (n=8) were fed with normal diet ad libitum and set up for control purpose (see below for details on grouping). […] Samples would not be collected from euthanized animals. Individual body weight was measured daily during the treatment period. […] Four NASH mice were intraperitoneally administered vehicle supplemented with D-Cy5 at a dose of 50 mg/kg single shot at 6 weeks of age; • Group 11 (D-Cy5-9 wks): Four NASH mice were intraperitoneally administered vehicle supplemented with D-Cy5 at a dose of 50 mg/kg single shot at 9 weeks of age. Mice in group 10 and 11 were sacrificed at 6 and 9 weeks of age 48 hours after the administration. Mice in group 1 - 9 were sacrificed at 9 weeks of age for the following assay, group 10 and 11 were sacrificed at 6 and 9 weeks of age for the following assays. Individual liver weight were measured and liver-to-body weight ratio were calculated. Non-fasting serum ALT levels were quantified by FUJI DRI CHEM (Fujifilm, Japan). Liver triglyceride levels were quantified by Triglyceride E-test kit (FUJIFUILM Wako Pure Chemical Corporation, Japan). HE staining and estimation of NAFLD Activity score was carried out using routine methods. Sirius-red staining and estimation of the percentage of fibrosis area was also calculated. After completion of the in-life portion of the study, the following samples were collected for further analyses or shipping. […] Dissect the animal and collect the tissue samples (right and left kidneys, liver) in sequential order. Sample thickness was less than approximately 5 mm to ensure proper fixation, with a flat surface across the area of interest. Put the samples into 4% NBF for fixation immediately. Fix the samples in 4% NBF overnight at room temperature.

Data set [3] is described as follows: water solubility of dendrimer conjugates.
[4] abbreviates: NASH mice, significantly compared to free OCA and vehicle control (p < 0.05, n=8).

CSF1R, sequence (P07333 20-972, species assumed): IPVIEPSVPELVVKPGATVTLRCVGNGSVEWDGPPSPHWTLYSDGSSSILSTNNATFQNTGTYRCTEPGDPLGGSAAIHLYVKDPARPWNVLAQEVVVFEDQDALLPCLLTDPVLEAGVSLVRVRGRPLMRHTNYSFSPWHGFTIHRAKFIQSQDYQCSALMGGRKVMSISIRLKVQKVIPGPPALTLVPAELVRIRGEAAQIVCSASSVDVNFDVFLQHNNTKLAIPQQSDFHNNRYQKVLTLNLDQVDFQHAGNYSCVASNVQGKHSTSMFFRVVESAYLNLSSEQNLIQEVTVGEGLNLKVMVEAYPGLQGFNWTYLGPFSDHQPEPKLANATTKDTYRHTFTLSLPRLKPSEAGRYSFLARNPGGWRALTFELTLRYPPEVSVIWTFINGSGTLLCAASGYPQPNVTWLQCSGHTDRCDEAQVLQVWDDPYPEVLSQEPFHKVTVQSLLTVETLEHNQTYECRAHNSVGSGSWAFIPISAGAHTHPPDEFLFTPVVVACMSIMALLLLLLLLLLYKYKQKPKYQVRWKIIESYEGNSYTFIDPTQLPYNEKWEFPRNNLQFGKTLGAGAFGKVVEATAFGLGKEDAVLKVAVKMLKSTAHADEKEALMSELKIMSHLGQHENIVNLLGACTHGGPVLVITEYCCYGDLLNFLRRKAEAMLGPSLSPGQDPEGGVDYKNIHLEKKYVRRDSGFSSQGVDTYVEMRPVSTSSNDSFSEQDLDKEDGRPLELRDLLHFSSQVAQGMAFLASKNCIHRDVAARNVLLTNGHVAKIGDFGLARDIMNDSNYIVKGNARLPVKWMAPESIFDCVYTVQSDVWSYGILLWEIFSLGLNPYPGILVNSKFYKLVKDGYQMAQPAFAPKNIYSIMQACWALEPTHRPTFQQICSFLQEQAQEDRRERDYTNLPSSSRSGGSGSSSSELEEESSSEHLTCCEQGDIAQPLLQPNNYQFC

Consider “dendrimer-triantennary GalNAc(4-5)-telmisartan (7-8) [D-TelB]”, for which the drug release in data set [1] worked out at 94%. Take “telmisartan-PEG3-amide azide [Telmisartan amide linker]”: the dissociation constant (Kd) in data set [2] amounted to 74.2 nM. `Cc1ccc(NC(=O)c2ccc(CN3CCN(CCOCCOCCOCCN=[N+]=[N-])CC3)c(C(F)(F)F)c2)cc1NC(=O)c1cccc(-c2cnn(C)c2)c1` [CSF1R-E analogue 1]: the dissociation constant Kd at CSF1R was ~13 nM.

“dendrimer-GalNAc(4-5)-Obeticholic acid conjugate (6-7) [D-OCA]”: the “liver function (biochemical analysis)” value in the data set on NASH mice (NASH mice) is on record as “improved liver function”. Also, in the data set with NASH mice (setting [4]), the NAFLD score entry is given as “decreases”, the hepatocyte ballooning result was “decreases” and the liver fibrosis entry is reported as “decreases”. In addition, in the data set with NASH mice (high dose D-OCA (315 mg/kg i.p. every other day), compared to free OCA group), the fibrosis score entry is recorded as “improved reduction”. The stenosis score entry with NASH mice (low dose D-OCA (63 mg/kg i.p. every other day)) is recorded as “significant reduction”. In data set [3], “dendrimer-GalNAc (4-5)-telmisartan amide (6-7) [D-Tel]” gave a water solubility of 60 to 70 mg/mL. In addition, in data set [1], the drug release entry was “less than 10%”. In data set [2], “telmisartan-ester-PEG4 azide [Telmisartan ester linker]” showed a Kd of 28.5 nM. Consider `CCCc1nc2c(C)cc(-c3nc4ccccc4n3C)cc2n1Cc1ccc(-c2ccccc2C(=O)O)cc1` [Telmisartan, reference compound], for which the liver weight result with NASH mice (NASH mice at nine weeks of age, compared to vehicle-treated NASH mice) is recorded as “reduce liver weight”.

Values taken from US20230233696A1, “TRIANTENNARY N-ACETYLGALACTOSAMINE MODIFIED HYDROXYL POLYAMIDOAMINE DENDRIMERS AND METHODS OF USE THEREOF” (Ashvattha Therapeutics, Inc., priority 2019, published 2023).
